Experimental data from the supplement of paper PMC10307832.

Assays:
Experiment in all cases: relative viability (nuclei count vs DMSO), 5 days (fraction); higher = more cells survive
[1] = compound: CCC1=CN=CN=C1N2CCN(CC2)CC3=NC4=C(N3)C=C(C=C4)C(F)(F)F + CS(=O)(=O)CCNCc1ccc(-c2ccc3ncnc(Nc4ccc(OCc5cccc(F)c5)c(Cl)c4)c3c2)o1 [Lapatinib] (partner 2 µM)
Outline: (§1)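 Relative viability equals treated-well nuclei counts divided by vehicle-well nuclei counts. Counts came from 4× images of lung cancer cell lines grown in 1536-well plates for 5 days after pin-tool dosing on the day after seeding. Dosing used one drug alone or a fixed anchor-drug dose plus five library-drug doses (not always all listed) in √10 steps, and values are medians of duplicate plates.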

[2] = compound: N=C1NC(=O)/C(=C/c2ccc(O)cc2)S1 [Mirin] + Nc1ncn([C@H]2C[C@H](O)[C@@H](CO)O2)c(=O)n1 [Decitabine] (partner 2 µM)
Outline: as §1

[3] = compound: N=C1NC(=O)/C(=C/c2ccc(O)cc2)S1 [Mirin] + CS(=O)(=O)N1CCN(Cc2cc3nc(-c4cccc5[nH]ncc45)nc(N4CCOCC4)c3s2)CC1 [Pictilisib] (partner 1 µM)
Outline: as §1

[4] = compound: CCC1=CN=CN=C1N2CCN(CC2)CC3=NC4=C(N3)C=C(C=C4)C(F)(F)F + CS(=O)(=O)N1CCN(Cc2cc3nc(-c4cccc5[nH]ncc45)nc(N4CCOCC4)c3s2)CC1 [Pictilisib] (partner 1 µM)
Outline: as §1

Row | Cell Line | relative viability ([1]; first compound 0.04 µM) | relative viability ([1]; first compound 0.1265 µM) | relative viability ([1]; first compound 0.4 µM) | relative viability ([1]; first compound 1.265 µM) | relative viability ([1]; first compound 4 µM) | relative viability ([2]; first compound 0.25 µM) | relative viability ([2]; first compound 0.7906 µM) | relative viability ([2]; first compound 2.5 µM) | relative viability ([2]; first compound 7.906 µM) | relative viability ([2]; first compound 25 µM) | relative viability ([3]; first compound 0.25 µM) | relative viability ([3]; first compound 0.7906 µM) | relative viability ([3]; first compound 2.5 µM) | relative viability ([3]; first compound 7.906 µM) | relative viability ([3]; first compound 25 µM) | relative viability ([4]; first compound 0.04 µM) | relative viability ([4]; first compound 0.1265 µM) | relative viability ([4]; first compound 0.4 µM) | relative viability ([4]; first compound 1.265 µM) | relative viability ([4]; first compound 4 µM)
1 | 201T | 1.01 | 0.992 | 1.03 | 0.947 | 1.09 | 0.877 | 0.885 | 0.842 | 0.939 | 1 | 0.704 | 0.668 | 0.614 | 0.753 | 0.67 | 0.708 | 0.652 | 0.658 | 0.514 | 0.801
2 | A549 | 0.885 | 0.948 | 0.823 | 0.945 | 0.808 | 0.311 | 0.298 | 0.278 | 0.305 | 0.301 | 0.541 | 0.512 | 0.55 | 0.403 | 0.321 | 0.547 | 0.488 | 0.467 | 0.507 | 0.426
3 | A-427 | 0.795 | 0.991 | 1.01 | 0.911 | 1.05 | 0.554 | 0.479 | 0.546 | 0.521 | 0.514 | 0.749 | – | 0.821 | 0.603 | 0.783 | 0.675 | 0.685 | 0.682 | 0.637 | 0.574
4 | ABC-1 | 1.23 | 1.24 | 1.25 | 1.01 | 0.98 | 1.09 | 0.898 | 1.16 | 0.883 | 0.715 | 0.923 | 0.501 | 0.753 | 0.695 | 0.302 | 0.587 | 0.955 | 0.69 | 0.665 | 0.646
5 | BEN | 0.535 | 0.731 | 0.597 | 0.492 | 0.437 | 0.553 | 0.711 | 0.661 | 0.67 | 0.522 | 0.484 | 0.656 | 0.619 | 0.416 | 0.312 | 0.593 | 0.557 | 0.503 | 0.343 | 0.331
6 | CAL-12T | – | 0.667 | 0.677 | 0.707 | 0.574 | – | – | – | – | – | 0.535 | – | 0.561 | – | 0.368 | – | 0.541 | 0.295 | 0.314 | 0.361
7 | COR-L23 | 0.979 | 0.914 | 0.74 | 0.781 | 0.92 | 0.447 | 0.505 | 0.466 | 0.426 | 0.409 | 0.8 | 0.721 | 0.854 | 0.738 | 0.687 | 0.696 | 0.71 | 0.676 | 0.632 | 0.769
8 | COR-L 105 | 0.35 | 0.331 | 0.395 | 0.275 | 0.426 | 0.596 | 0.698 | 0.744 | 0.667 | 0.63 | 0.407 | 0.263 | 0.397 | 0.373 | 0.326 | 0.372 | 0.376 | 0.385 | 0.247 | 0.464
9 | Calu-6 | 1.1 | 1.11 | 1.05 | 0.988 | 1.03 | – | – | – | – | – | 0.997 | 0.934 | 0.862 | 0.761 | 0.597 | 1.07 | 0.877 | 0.865 | 0.822 | 0.73
10 | ChaGo-K-1 | – | – | – | – | – | 0.412 | 0.476 | 0.545 | 0.516 | 0.434 | 0.667 | – | 0.713 | 0.571 | 0.693 | – | 0.707 | 0.63 | 0.668 | 0.557
11 | EBC-1 | 0.224 | 0.3 | 1.47 | 1.52 | 1.31 | – | – | – | – | – | 0.456 | 0.343 | 0.378 | 0.238 | 0.204 | 0.459 | 0.318 | 0.333 | 0.261 | 0.352
12 | EKVX | 0.212 | 0.198 | 0.227 | 0.174 | 0.216 | 0.317 | 0.338 | 0.395 | 0.361 | 0.26 | 0.39 | 0.422 | 0.396 | 0.394 | 0.378 | 0.395 | 0.388 | 0.373 | 0.307 | 0.444
13 | EMC-BAC-2 | 0.889 | 0.864 | 0.86 | 0.743 | 0.982 | 0.997 | 1.02 | 0.977 | 0.949 | 1.09 | 0.56 | 0.546 | 0.532 | 0.508 | 0.52 | 0.571 | 0.491 | 0.479 | 0.349 | 0.608
14 | EPLC-272H | 0.854 | 0.807 | 0.853 | 0.913 | 0.975 | 0.33 | – | 0.39 | 0.34 | 0.28 | 0.35 | – | 0.284 | 0.311 | 0.258 | 0.305 | 0.285 | 0.287 | 0.302 | 0.284
15 | H3255 | 0.241 | 0.238 | 0.218 | 0.234 | 0.246 | 0.595 | 0.577 | 0.649 | 0.467 | 0.758 | 0.516 | 0.444 | 0.493 | 0.306 | 0.564 | 0.5 | 0.507 | 0.446 | 0.423 | 0.455
16 | HARA | 0.894 | 0.762 | 0.687 | 0.602 | 0.866 | 0.768 | – | 0.644 | 0.653 | 0.442 | 0.367 | 0.353 | 0.437 | 0.335 | 0.169 | 0.311 | 0.326 | 0.321 | 0.302 | 0.471
17 | HCC-15 | 0.847 | 0.814 | 0.839 | 0.828 | 0.865 | 0.612 | 0.517 | 0.618 | 0.59 | 0.505 | 0.789 | 0.411 | 0.665 | 0.551 | 0.517 | 0.667 | 0.676 | 0.677 | 0.532 | 0.805
18 | HCC-44 | 0.932 | 0.956 | 0.975 | 1.05 | 0.85 | 0.938 | 0.958 | 0.99 | 0.922 | 1.01 | 0.7 | 0.819 | 0.602 | 0.541 | 0.474 | 0.584 | 0.593 | 0.557 | 0.477 | 0.596
